Source: BigSolDB 2.1

SMILES: O=c1cc(-c2ccccc2)oc2cc(O)cc(O)c12
- solubility (mole fraction) (in ethanol, 293.15 K): 0.00689
- solubility (mole fraction) (in ethanol, 298.15 K): 0.00749
- solubility (mole fraction) (in ethanol, 303.15 K): 0.0078
- solubility (mole fraction) (in ethanol, 308.15 K): 0.00928
- solubility (mole fraction) (in ethanol, 313.15 K): 0.0108
- solubility (mole fraction) (in ethanol, 318.15 K): 0.0121
- solubility (mole fraction) (in ethanol, 323.15 K): 0.0137
- solubility (mole fraction) (in water, 293.15 K): 1.26e-05
- solubility (mole fraction) (in water, 298.15 K): 1.86e-05
- solubility (mole fraction) (in water, 303.15 K): 2.38e-05
- solubility (mole fraction) (in water, 308.15 K): 3.53e-05
- solubility (mole fraction) (in water, 313.15 K): 4.61e-05
- solubility (mole fraction) (in water, 318.15 K): 6.5e-05
- solubility (mole fraction) (in water, 323.15 K): 0.0001
